Test results published in the supplement of paper PMC11208160.

Assay: recombinant UMI read abundance after kanamycin selection (control-corrected) (log10(CPM+1)); higher = more efficient recombination; extreme values may be limits of the assay; sequences stand for … in AGTGCAGAGAAAATCGGCCAGTTTTCTCTGCCTGCAGTCCGCATGCCGTGGGACCCCTTGGGTTCTAACCTGTTGCCTAGATTTATGCAGCGGACTGCCTTTCTCCCAAAGTGATAAACCGG…AGGTTGGTTTCACT; site = the 11-nt donor
Method in brief: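 Under IPTG (0.07 mM) plus kanamycin, or without selection, Escherichia coli carrying a UMI-tagged donor and donor-binding-loop pair library and a target plasmid for the IS621 bridge recombinase were plated in two replicates. Recombinant UMIs were PCR-amplified across the donor–target junction and sequenced. Counts were converted to CPM, averaged over replicates, scaled by control-derived factors and reported as log10(CPM+1).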
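Also: IS621 bridge recombinase in Escherichia coli cells against a fixed T5 target plasmid.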

Sequence | recombinant UMI read abundance (log10)
CTGGAAACATGGACCGGTTTTCCCGGTAATCCGTATTTGCC (site CTGGAAACTCG) | 0
CACACCTCATGGACCGGTTTTCCCGGTAATCCGTATTTGCC (site CACTCCTCTGG) | 1.97
CCCTATCCATGGACCGGTTTTCCCGGTAATCCGTATTTGCC (site CCCTAACCTGG) | 0
CGAATTACATGGACCGGTTTTCCCGGTAATCCGTATTTGGC (site CGAATTACTGC) | 1.14
CTAGTATCATGGACCGGTTTTCCCGGTAATCCGTATTTGAC (site CTAGTCTCTGA) | 0
GCTACAGCATGGACCGGTTTTCCCGGTAATCCGTATTTGCC (site GCTACCGCTGG) | 0
CCAGTAGCATGGACCGGTTTTCCCGGTAATCCGTATTTGAC (site CCAGTAGCTGT) | 2.06
AGCCTTCCATGGACCGGTTTTCCCGGTAATCCGTATTTGAC (site AGCCTTCCTGT) | 0
ACACATCCATGGACCGGTTTTCCCGGTAATCCGTATTTGCC (site ACACATCCTGC) | 0
TGTACTCCATGGACCGGTTTTCCCGGTAATCCGTATTTGAC (site TGTACACCTGT) | 0
CGTGGAACATGGACCGGTTTTCCCGGTAATCCGTATTTGTT (site CGTGAAACTAA) | 0
GAATGGCCATGGACCGGTTTTCCCGGTAATCCGTATTTGCG (site GAATGGCCTGG) | 0
ACAGCATCATGGACCGGTTTTCCCGGTAATCCGTATTTGCA (site ACAGAATCTTG) | 0.803
CCCCTATCATGGACCGGTTTTCCCGGTAATCCGTATTTGTC (site CCCCTATCTGA) | 1.82
TACCCCTCATGGACCGGTTTTCCCGGTAATCCGTATTTGGC (site TACCCCTCTGC) | 3.09
ATCTATACATGGACCGGTTTTCCCGGTAATCCGTATTTGAC (site AGCTATACTGT) | 1.66
CCATATGCATGGACCGGTTTTCCCGGTAATCCGTATTTGGC (site CCATATGCTGC) | 0.0195
CTAGTATCATGGACCGGTTTTCCCGGTAATCCGTATTTGAC (site CGAGTATCTGC) | 0
AGCTCAACATGGACCGGTTTTCCCGGTAATCCGTATTTGGG (site AGCTCATCTCC) | 0

Sequence | recombinant UMI read abundance (log10)
GAGCTCACATGGACCGGTTTTCCCGGTAATCCGTATTTGAT (site GAGCCCACTAT) | 0.905
CCCGGTCCATGGACCGGTTTTCCCGGTAATCCGTATTTGGA (site CCCGGTCCTTT) | 0.0436
GTATTCACATGGACCGGTTTTCCCGGTAATCCGTATTTGTA (site GTATACACTTA) | 0.154
GAAGATGCATGGACCGGTTTTCCCGGTAATCCGTATTTGTT (site GAAGATACTAA) | 1.88
TAGGTTTCATGGACCGGTTTTCCCGGTAATCCGTATTTGCG (site TAGGTTTCTCG) | 1.99
GAGTCCCCATGGACCGGTTTTCCCGGTAATCCGTATTTGTC (site GAGTCCCCTGA) | 0.99
ACCCGATCATGGACCGGTTTTCCCGGTAATCCGTATTTGAT (site ACCCGATCTAT) | 1.53
ATGGCTACATGGACCGGTTTTCCCGGTAATCCGTATTTGGG (site ATGGCTACTCC) | 0.356
GTGATTCCATGGACCGGTTTTCCCGGTAATCCGTATTTGGT (site GTGATTCCTAC) | 0.318
AGAAAGGCATGGACCGGTTTTCCCGGTAATCCGTATTTGGT (site AGAAAGGCTAA) | 1.65
CTCCACACATGGACCGGTTTTCCCGGTAATCCGTATTTGGG (site CTCCACACTCC) | 0.0377
GCTTGCCCATGGACCGGTTTTCCCGGTAATCCGTATTTGTT (site GCTTGCCCTAT) | 0.013
ACAGTGGCATGGACCGGTTTTCCCGGTAATCCGTATTTGCT (site ACAGTGGCTAG) | 2.32
TACTTGACATGGACCGGTTTTCCCGGTAATCCGTATTTGCT (site TACTTGTCTAG) | 0.0219
ATCCAAGCATGGACCGGTTTTCCCGGTAATCCGTATTTGAG (site ATCCAAGCTCT) | 0.799
CGATCACCATGGACCGGTTTTCCCGGTAATCCGTATTTGCT (site CGATCACCTAG) | 0
TAGTGAGCATGGACCGGTTTTCCCGGTAATCCGTATTTGGG (site TAGTGAGCTCC) | 0.0293
TGGACAACATGGACCGGTTTTCCCGGTAATCCGTATTTGTG (site TGGACAACTCA) | 0.209
CAATACCCATGGACCGGTTTTCCCGGTAATCCGTATTTGCT (site CAATGCCCTAG) | 0.00435
